The record followed here is EPA's ToxValDB 9.5 (doi:10.2903/j.efsa.2009.205r).

The subject of one data set is Daphnia magna. Particulars: chronic/long-term; duration: 21 days; reproduction.
The subject of another data set is Plant. The following applies: chronic/long-term; duration: 14 days.
Another data set concerns Landoltia sp. The following applies: chronic/long-term; duration: 14 days.
Another data set concerns Bibionidae. The following applies: chronic/long-term; duration: 28 days.
The test system of the next data set is Tagia sp. The following applies: for LC50: acute, duration: 14 days, mortality.
Another data set concerns Typhlodromus pyri. The data set can be described thus: LR50; higher = less toxic. Particulars: not reported; mortality.
The subject of another data set is Apis mellifera. The following applies: acute, mortality.

As for `CC(Oc1ccc(Oc2cnc3cc(Cl)ccc3n2)cc1)C(=O)O` (stereo not drawn) [Quizalofop], the NOEC with Daphnia magna is 0.82 mg/L; with Plant, 0.094 mg/L; in the data set with Landoltia sp. it was 3.2 mg/L; in the data set on Oncorhynchus mykiss (chronic/long-term, duration: 28 days, growth), 46.2 mg/L; with Bibionidae, 35.7 mg/L; with Tagia sp. (chronic/long-term) it was above 50 mg/kg. Further, the LC50 in the data set with Oncorhynchus mykiss (acute, duration: 96 hours, mortality) is above 100 µg/mL; in the data set on Tagia sp., 948 mg/kg.

`C[C@@H](Oc1ccc(Oc2cnc3cc(Cl)ccc3n2)cc1)C(=O)OCC1CCCO1` (stereo partly drawn) [Quizalofop P tefuryl] showed an LR50 in the data set on Typhlodromus pyri below 100 g/ha. For the same compound, the LD50 in the data set on Anas platyrhynchos (acute, oral, unspecified, mortality) was above 2150 mg/kg; in the data set with Apis mellifera (dermal), above 100 µg/piece; in the data set on Apis mellifera (oral, unspecified) it was 16.8 µg/piece; in the data set on Colinus virginianus (acute, oral, mortality) it was above 2150 mg/kg; in the data set with Rattus norvegicus (acute, oral, mortality), 1010 mg/kg-day. Also, the NOEC in the data set with Anas platyrhynchos (reproductive) was determined as 68.7 mg/kg-day; in the data set with Colinus virginianus (reproduction developmental) it was 69.4 mg/kg-day. Besides, the LC50 with Anas platyrhynchos (short-term, oral, feed, mortality) was above 259 mg/kg-day; in the data set with Tagia sp., 16.9 mg/kg; with Colinus virginianus (acute, oral, diet, mortality), above 487 mg/kg-day. The NOAEL in the data set with Rattus norvegicus (chronic, duration: 2 years, oral, diet) was determined as 1.3 mg/kg-day; with Rattus norvegicus (reproduction developmental, mortality), 10 mg/kg-day; with Rattus norvegicus (reproduction developmental, reproduction) it was 16.9 mg/kg-day; in the data set with Rattus norvegicus (subchronic, duration: 90 days, oral, organ weight), 1.7 mg/kg-day.

Usually NOAEL stands for the highest dose or exposure tested at which no adverse effect was seen.
